Source: patent publication US5198418A, “Substituted alkylamides of teicoplanin compounds” (Gruppo Lepetit S.p.A., priority 1987, dated 1993)

Legend:
[1] = test system: Proteus vulgaris X 19H ATCC 881; experiment: in vitro antibacterial activity, MIC; format: cell-based; settings: inoculum about 10^4 CFU/ml, 18-24 h at 37° C.
Experimental: (§1) ISOSENSITEST broth, culture medium (Oxoid) and Todd-Hewitt broth, culture medium (Difco) are used for growing staphylococci and streptococci, respectively. Broth cultures are diluted so that the final inoculum is about 10^4 colony forming units/ml (CFU/ml).

[2] = test system: Staph. aureus Tour; experiment: in vitro antibacterial activity, MIC; format: cell-based; settings: inoculum about 10^4 CFU/ml, 18-24 h at 37° C.
Experimental: as §1

[3] = test system: Strepto. pyogenes C 203; experiment: in vitro antibacterial activity, MIC; format: cell-based; settings: inoculum about 10^4 CFU/ml, 18-24 h at 37° C.
Experimental: as §1

[4] = test system: Strepto. faecalis ATCC 7080; experiment: in vitro antibacterial activity, MIC; format: cell-based; settings: inoculum about 10^4 CFU/ml, 18-24 h at 37° C.
Experimental: as §1

[5] = test system: Staph. epidermidis ATCC 12228; experiment: in vitro antibacterial activity, MIC; format: cell-based; settings: inoculum about 10^4 CFU/ml, 18-24 h at 37° C.
Experimental: as §1

[6] = test system: Strepto. pneumoniae UC 41; experiment: in vitro antibacterial activity, MIC; format: cell-based; settings: inoculum about 10^4 CFU/ml, 18-24 h at 37° C.
Experimental: as §1

[7] = test system: Staph. haemoliticus 602; experiment: in vitro antibacterial activity, MIC; format: cell-based; settings: inoculum about 10^4 CFU/ml, 18-24 h at 37° C.
Experimental: as §1

[8] = test system: E. coli SKF 12140; experiment: in vitro antibacterial activity, MIC; format: cell-based; settings: inoculum about 10^4 CFU/ml, 18-24 h at 37° C.
Experimental: as §1

[9] = test system: Pseudomonas aeruginosa ATCC 10145; experiment: in vitro antibacterial activity, MIC; format: cell-based; settings: inoculum about 10^4 CFU/ml, 18-24 h at 37° C.
Experimental: as §1

[10] = test system: S. pyogenes C 203; experiment: in vivo activity in mice infected with S. pyogenes

SMILES	MIC [1] [µg/mL]	MIC [2] [µg/mL]	MIC [3] [µg/mL]	MIC [4] [µg/mL]	MIC [5] [µg/mL]	MIC [6] [µg/mL]	MIC [7] [µg/mL]	MIC [8] [µg/mL]	MIC [9] [µg/mL]	ED50 ([10]; route of administration p.o.) [mg/kg]	ED50 ([10]; route of administration s.c) [mg/kg]
Cl.NC1C(=O)NC2Cc3ccc(c(Cl)c3)Oc3cc4cc(c3O)Oc3ccc(cc3Cl)C(O)C3NC(=O)C(NC(=O)C4NC(=O)C(NC2=O)c2cc(O)cc(c2)Oc2cc1ccc2O)c1ccc(O)c(c1)-c1c(O)cc(O)cc1C(C(=O)NC(CCC(=O)N1CCSCC1)C(=O)N1CCSCC1)NC3=O (centres unmarked) [Compound 22]	> 128	0.12	0.12	0.12	0.06	0.12	0.12	> 128	> 128		
CCCCC(NC(=O)C1NC(=O)C2NC(=O)C(NC(=O)C3NC(=O)C4NC(=O)C(Cc5ccc(c(Cl)c5)Oc5cc3cc(c5O)Oc3ccc(cc3Cl)C2O)NC(=O)C(NC(=O)OC(C)(C)C)c2ccc(O)c(c2)Oc2cc(O)cc4c2)c2ccc(O)c(c2)-c2c(O)cc(O)cc21)C(=O)NCCS (centres unmarked) [Compound 20]										> 300	8.70
